Results: US20070166710A1, “Methods for inhibiting adipogenesis and for treating type 2 diabetes” (priority 2003, published 2007)

Columns and labels:
Shp = Shp expression in primary adipocytes of lean mice cultured with insulin; format: cell-based; details: insulin 50 nM, 60 hours
Foxa-2 expression [1] = test: Foxa-2 expression in primary adipocytes from lean wildtype C57B6 mice, semiquantitative RT-PCR; format: cell-based; details: insulin 100 nM, 60 hours
Experimental: (§1) Total RNA was extracted from cells and EBs using Trizol following manufacturer's instructions (Life Technologies, Inc.). […] The cDNAs provided templates for polymerase chain reactions (PCRs) using specific primers at annealing temperatures ranging between 60 and 65° C. in the presence of dNTPs, [α^-32P]dCTP, and Taq DNA polymerase. […] Primary adipocytes were isolated as described by Rodbell (1964) J. Biol. Chem. 239:375-380. […] (1995) J. Cell. Biochem. 58:435-463. The reaction was stopped by spinning through dinonyl […] oil and the radioactivity quantified by scintillation counting. […] (1995) Am. J. Physiol. 268:[…]-[…]. Fatty acid de novo synthesis was analyzed by saponification of total lipids as described by […] et al. (1978) J. […] Incorporation into lipid glycerol was calculated by subtracting fatty acid radioactive label from total lipid radioactive label. Primary adipocytes were isolated from lean wildtype C57B6 mice and cultured in MEM medium (control) or in the presence of insulin (100 nM; 24 hours and 60 hours, respectively) or rosiglitazone (50 μM), WY14,643 (100 μM), dexametason (1 μM), leptin (100 ng/ml), TNF-α (5 ng/ml), adiponectin (500 ng/ml) and glucagons (100 nM) for 60 hours. Gene expression was measured by semiquantitative RT-PCR. Steady state mRNA levels of Hprt were used as a control and indicate that each lane contains similar amounts of mRNA. Reactions were also assayed in the absence of reverse transcriptase, showing that mRNA was not contaminated with genomic DNA.

Fxr = Fxr expression in primary adipocytes of lean mice cultured with insulin; format: cell-based; details: insulin 50 nM, 60 hours
Foxa-2 expression [2] = test: Foxa-2 gene expression in stromal vascular cells (preadipocytes) of lean and obese mice; format: cell-based; details: 100 nM insulin, 24 and 60 hours
Experimental: Gene expression was analyzed in a vasculo-stromal fraction (containing preadipocytes) of wildtype and ob/ob mice that were cultured in the absence (−) or presence of 100 nM insulin for 24 and 60 hours.
Stromal vascular cells from ob/ob mice are known to have increased cell replication in vitro and accumulate little triglycerides when cultured in differentiation medium containing insulin compared to lean control animals (Black et al (1995) J. Cell. Biochem 58:455-463). […] To test if the resistance to differentiation of obese preadipocytes may be mediated by Foxa-2, stromal vascular cells of lean and obese mice were isolated. cultured in the presence or absence of insulin, and gene expression of Foxa-2 and Pref-1 was measured. The mPNA levels were markedly higher in stromal vascular cells of ob/ob mice compared to lean littennates. […] However, Foxa-2 induction in ob/ob preadipocytes was profoundly higher compared to wildtype cells. Furthermore, Foxa-2 expression correlated with induction of Pref-1 gene expression.

Foxa-2 expression [3] = test: Foxa-2 expression in primary adipocytes from ob/ob mice, semiquantitative RT-PCR; format: cell-based; details: insulin 100 μM as printed, prolonged culturing (24 and 60 hours)
Experimental: as §1, with “ob/ob” for “lean wildtype C57B6”, “μM;” for “nM;”, “dexamethason” for “dexametason”, “TNF-α,” for “TNF-α”, “rnRNA.” for “mRNA.”

[4] = system: endogenous Foxa-2 activity in HepG2 cells; test: Endogenous Foxa-2 activity in HepG2 cells transfected with reporter construct alone; format: cell-based
Experimental: Transfections and Transactivation assay. HepG2 cells were grown to 60-70% confluence in a 24-well dish and transfected with 50 ng of each reporter gene (p6xCdx-TkLuc or pPEPCK-Luc), pCMV-β-Gal as internal reference and the expression vectors for wildtype or mutant Foxa-1 and Foxa-2 and human Akt1/Akt2 using the transfection reagent Fugene6 (Roche). Cells were grown for 48 hours and luciferase activity was measured using the Luciferase Detection System (Promega). Luciferase was normalized for transfection efficiency by β-galactosidase activity. […] To determine whether insulin decreases endogenous Foxa-2 activity in HepG2 cells, cells were transfected with the reporter construct alone and Foxa-2 activity was measured after stimulation with insulin and PI3-kinase or MAPKK1 inhibitors. […] This decrease in activity was ablated when cells were coincubated with Ly294002 but not with PD98059 (FIG. 10b).

Foxa-1, 2 and 3 = test: Expression levels of Foxa-1, 2 and 3 in primary hepatocytes (RT-PCR); format: cell-based; details: insulin-treated cells
Foxa-2 activity = test: Transactivation assay, HepG2 cells transfected with Foxa-2 and pPepck-Luc or p6xCdx-TkLuc; format: cell-based, rat; details: insulin 100 nM for the duration of transfection
Source text: To analyze whether Foxa-2 activity is regulated by insulin, HepG2 cells were transfected with a Foxa-2 expression vector and either plasmid pPepck-Luc or p6xCdx-TkLuc that contain a 621 bp promoter framnent of the human PEPCK gene or six Foxa-2 binding sites of the Cdx-2 gene upstream of a minimal promoter and the luciferase gene, respectively.

[5] = system: Pref-1, Hk-2, m2Pk, Glut-4 and Ucp-2/3; test: Expression of putative Foxa-2 target genes in primary adipocytes cultured with insulin; format: cell-based, mice; details: 100 nM insulin for 60 hours vs untreated adipocytes

With “insulin: Insulin was from Sigma; hormone used as stimulus” the “Expression of Shp” value (Shp) was “induced”, the Foxa-2 expression (Foxa-2 expression [1]) was “strong induction” and the Fxr expression (Fxr) was “induced”. For the same substance, the “expression of Foxa-2” value (Foxa-2 expression [2]) was “markedly increased”, the Foxa-2 expression (Foxa-2 expression [3]) was “strong increase” and the “decrease of Foxa-2 activity” value ([4]; 500 nM insulin) was 80%. For the same substance, the “Foxa-2 activity, dose dependence” value ([4]; insulin stimulation) was “dose-dependent decrease”, the “expression levels of Foxa-1, 2 and 3” value (Foxa-1, 2 and 3) was “did not significantly change” and the “Foxa-2 activity (luciferase reporter)” value (Foxa-2 activity) was “significantly decreased”. The “expression of Pref-1, Hk-2, m2Pk, Glut-4 and Ucp-2/3” value [5] was “upregulation”.
